Patent US10390536B2, “Methods, compounds and compositions for repelling insects and/or arachnids” (National Center for Scientific Research “Demokritos”, priority 2013, dated 2019)
Read-outs that look alike come from different tables or passages of the source.

How the values were obtained:
[1] = system: Anopheles gambiae (Giles) ss strain 16CSS female mosquitoes; test: warm body repellence assay (mosquito landings); assay type: in vivo; settings: for repellent activity in the warm body assay (in words): candidate compounds, initially 1.0-5.0 μg/cm^2 (about 5-31.5 nmole/cm^2); for median repellency (%) at 20 nmol/cm2: read-out: Median Repellency (%)
Procedure: To test the behavior of female mosquitoes to an essential oil containing OBP binding components, a previously described repellence assay [Kröber et al. (2010). An In Vitro Assay for Testing Mosquito Repellents Employing a Warm Body and Carbon Dioxide as a Behavioral Activator. Journal of the American Mosquito Control Association 26(4) 381-386] was conducted that measures the number of mosquito landings on a warm surface onto which an essential oil containing at least one candidate compound was applied.
To conduct a repellency assay, a selected essential oil or ethanol negative control was applied to a warm body at a dose of about 3.8 μg/cm^2 and allowed to dry for 40 seconds in order to allow evaporation of the solvent before introduction into the test cage with mosquitoes. As positive control for repellence, DEET dissolved in ethanol was applied to the warm body at the same dose. The treated warm body in conjunction with a pulse of carbon dioxide was introduced into the test cage containing fifty Anopheles gambiae (Giles) ss strain 16CSS female mosquitoes that were 4-11 days old and the number of mosquito landings on the warm body occurring within a 2-minute period was counted. Each candidate compound was tested in five different cages (i.e., 250 female mosquitoes) in a randomized design, and the ethanol control and up to four candidate compounds were tested in each cage. Raw data on numbers of landings by mosquitoes were analyzed using a linear mixed model accounting for treatment, experimental day, the individual cage, the number of females per cage and the level of the carbon dioxide pulse in ppm using R (R Development Core Team, 2010) and the packages LME4 (Bates and Maechler, Ime4: Linear mixed-effects models using {S4} classes.{R} package version 0.999375-32, 2009) and NLME (Pinheiro et al, nlme: Linear and Nonlinear Mixed Effects Models, 2010; the R Development Core Team, R: A Language and Environment for Statistical Computing, 2010). Repellent values were calculated from counted landings on treatments versus the overall landings on pooled controls.
To test the behavior of female mosquitoes to a candidate compound identified in Example 5, behavioral assays were made using the identified compounds. The repellent assay was performed as described in Example 3, except that candidate compounds were dissolved in ethanol and tested initially at doses between 1.0 and 5.0 μg/cm^2 (about 5-31.5 nmole/cm^2) and, whenever necessary, at lower and/or higher doses as well. Besides the compounds identified in Example 5, compounds related to these were also tested including ethyl-cinnamate and butyl-cinnamate (Table 4).
To test the behavior of female mosquitoes to various combinations of candidate compounds identified in Example 6, repellence assays were made as in Example 3. These repellent assays were made to compare the effectiveness of the strongest repellent compounds identified in Example 6, including, without limitation, carvacrol, ethyl cinnamate, butyl cinnamate, and cumin alcohol with that of DEET.
The doses tested were 2, 4, 6 10 and 20 nmol/cm^2 for the single compounds. The binary 50:50 mixtures were tested at 2, 6, 10 and 20 nmol/cm^2, with each compound making up half the amount tested, so that, for example, the 2 nmol/cm^2 concentration in column A+B represents 1 nmol/cm^2 of A and 1 nmol/cm^2 of B in a binary mixture. DEET was also tested at 25 nmol (top response) and carvacrol was tested at the additional dose of 2.5 nmol (second from left within its column). As an indication, DEET at 20 nmol/cm^2=3.8 μg/cm^2. Mosquitoes were activated using a puff of CO2 from a gas tank upon introduction of the warm body into the test cage containing 50±5 A. gambiae females and mosquito landings were counted for 2 minutes. Each treatment (dose) was tested using five test cages, i.e. on a total of 250 female A. gambiae. […]

[2] = system: female A. gambiae antennae; test: GC-coupled electroantennogram (GC-EAG) recording; set-up: species or system Anopheles gambiae; settings: compounds eluting from GC of essential oils
From the text: Electrophysiological recordings from whole mosquito antenna: Coupling EAG recordings from an A. gambiae antenna to the effluent of a high-resolution gas chromatographic (GC) column permitted the determination of the elution profiles of biologically active components of essential oils showing repellence. Recordings were made from to 4-9 day-old female mosquitoes. The head was excised at the occipital opening and placed on the reference glass electrode containing Hayes mosquito Ringer [Hayes (1953). Determination of a physiological saline for Aedes aegypti (L.). J Econ Entomol 46: 624-627] mounted in a humidified air-stream (90-98% RH; Guerin and Visser (1980). Electroantennogram Responses of the Carrot Fly, Psila rosae, to Volatile Plant Components. Physiological Entomology 5(2): 111-119] and its antenna exposed to compounds eluting from the GC column (Biessamann et al. (2010). The Anopheles gambiae odorant binding protein 1 (AgamOBP1) mediates indole recognition in the antennae of female mosquitoes. PLoS One 5(3): e9471]. The EAG response was recorded via a glass electrode filled with Kaissling sensillum lymph Ringer [Kaissling (1995). Single unit and electroantennogram recordings in insect olfactory organs. In Experimental Cell Biology of Taste and Olfaction. Current Techniques and Protocols, Spielman AlaB, J. G. (ed), 361-386. Boca Raton, Fla.: CRC Press] brought into contact with the terminal antennal segment whose tip was cut off. Only antennae showing an EAG response at least double the noise level to a 1 ml puff of air over 1 μg geranylacetone in a 5 ml stimulus syringe were used for recording EAG responses to the essential oils.
To conduct a GC-EAG analysis, about 2 μg of an essential oil was injected in 1-3 μL of dichloromethane (DCM) onto an apolar capillary column (95% dimethyl polysiloxan with 5% diphenyl polysiloxan, 15 m long, 0.25 mm i.d., 0.10 μm film thickness; BGB Analytik, Switzerland) installed in a 5300 Carlo Erba Instruments chromatograph. Hydrogen was used as carrier gas with the oven held at 40° C. for 3 minutes then heated up 25° C./min to 230° C. and held at the final temperature for 15 min. The column effluent was split (50:50) between the flame ionization detector (FID) of the chromatograph and the mosquito antennal preparation. The EAG signal was fed into an AC/DC amplifier (×100) via a high impedance preamplifier (×10), recorded on the hard disk of a PC via a 16-bit analogue-digital IDAC4 interface (Syntech, Netherlands) and monitored simultaneously with an oscilloscope (Tektronix 5103, USA). Kovats retention indices (KIs) were calculated for the EAG-active compounds present in the extracts and fractions. FIG. 1 illustrates the results obtained using the GC-EAG analysis. […]

[3] = system: sand fly Lutzomyia longipalpis; test: warm body repellence assay with sand flies; assay type: in vivo; settings: for Median of landings: 2 minutes, control 48
Procedure: To test the effects of repellent compounds or compositions disclosed herein on other blood-feeding arthropods, a warm body repellence assay (Krober et. al. (2010). An In Vitro Assay for Testing Mosquito Repellents Employing a Warm Body and Carbon Dioxide as a Behavioral Activator. Journal of the American Mosquito Control Association 26(4): 381-386] was conducted using the sand fly Lutzomyia longipalpis (Diptera: Psychodidae), the principal vector of Leishmania (or leismaniasis) in the Americas.
[…] Fifty L. longipalpis sandflies (male:female ratio 1:1) of 3-7 days old were tested during the scotophase under conditions described for A. gambiae in Example 6. The test cages were lined with filter paper. Reduction in the number of landings by L. longipalpis sand fly females on a warm body treated with different test products compared to the control with solvent (ethanol p.a.) alone was used to evaluate repellence. Tests were conducted in complete darkness using IR LEDs to illuminate the warm body. Landings counted during 2 minutes were normalized by experimental day, cage, and number of females by a mixed linear model before testing for differences.

[4] = Anopheles gambiae, 2 min, 20 nmole per cm^2

## C=C(C)C1CC=C(C)C(=O)C1 (single isomer, unassigned; (+)) [(+) carvone, carvone]
[1]
  repellent activity in the warm body assay (in words): only weak or no repellent activity at all

## C=C(C)[C@H]1CC=C(C)CC1 [(+) limonene, limonene]
[1]
  repellent activity in the warm body assay (in words): only weak or no repellent activity at all

## C=C(C)[C@@H]1CC=C(C)C(=O)C1 [(−) carvone, carvone]
[1]
  repellent activity in the warm body assay (in words): only weak or no repellent activity at all

## CC(C)c1ccc(C=O)cc1 [cumin aldehyde]
[1]; Anopheles gambiae, 2 min
  median repellency (%) at 20 nmol/cm2: 13.5%
[1]
  repellent activity in the warm body assay (in words): only weak or no repellent activity at all
[2]
  EAG response of antenna: capable of triggering EAG responses

## CC(C)c1ccc(C(=O)O)cc1 [cuminic acid]
[1]; [4]
  median repellency (%) at 20 nmol/cm2: 74.2%
[1]
  repellent activity in the warm body assay (in words): activity comparable to DEET
[3]; 20 nmol/cm^2
  Median of landings: 16
[3]; 200 nmol/cm^2
  Median of landings: 13
[3]; 20 and 200 nmol/cm^2
  repellence of sand flies from the warm body (in words): as effective as DEET at 20 nmol/cm^2
[2]
  EAG response of antenna: capable of triggering EAG responses

## C=CC(C)(O)CCC=C(C)C (centres unmarked) [linalool]
[1]
  repellent activity in the warm body assay (in words): properties suggesting attractant activity
[2]
  EAG response of antenna: capable of triggering EAG responses

## COC(=O)C=Cc1ccccc1 [methyl-trans-cinnamate, methyl 3-phenylprop-2-enoate]
[1]; [4]
  median repellency (%) at 20 nmol/cm2: 14%
[1]
  repellent activity in the warm body assay (in words): only weak or no repellent activity at all
[2]
  EAG response of antenna: capable of triggering EAG responses

## Cc1ccc(C(C)C)cc1 [p-cymene]
[1]
  repellent activity in the warm body assay (in words): properties suggesting attractant activity
[2]
  EAG response of antenna: capable of triggering EAG responses

## CC1=C(C=O)C(C)(C)CC=C1 [safranal]
[1]
  repellent activity in the warm body assay (in words): only weak or no repellent activity at all
[2]
  EAG response of antenna: capable of triggering EAG responses

## Cc1ccc(C(C)C)c(O)c1 [thymol, 2-Isopropyl-5-methylphenol]
[1]; Anopheles gambiae, 2 min, 31.5 nmole per cm^2
  median repellency (%) at 31.5 nmol/cm2: 89.7%
[1]
  repellent activity in the warm body assay (in words): activity comparable to DEET

## CC1=CCC2CC1C2(C)C (stereo not drawn) [α-pinene]
[1]
  repellent activity in the warm body assay (in words): only weak or no repellent activity at all
[2]
  EAG response of antenna: capable of triggering EAG responses

## C=C1CC/C=C(\C)CC[C@@H]2[C@@H]1CC2(C)C [β-caryophyllene]
[1]
  repellent activity in the warm body assay (in words): only weak or no repellent activity at all
[2]
  EAG response of antenna: capable of triggering EAG responses

## C=C1CCC2CC1C2(C)C (stereo not drawn) [β-pinene]
[1]
  repellent activity in the warm body assay (in words): only weak or no repellent activity at all
[2]
  EAG response of antenna: capable of triggering EAG responses

## CC1=CCC(C(C)C)=CC1 [γ-terpinene]
[1]
  repellent activity in the warm body assay (in words): only weak or no repellent activity at all

## CC(C)=C1CCC(C)(O)CC1 (centres unmarked) [γ-terpineol]
[2]
  EAG response of antenna: capable of triggering EAG responses

## limonene [(−) limonene]
[1]
  repellent activity in the warm body assay (in words): only weak or no repellent activity at all
